Assay results as given in DBAASP.
≈ marks a conversion by molar mass, not a printed value. Where “and” joins values, the source holds several entries; their conditions need not be identical. Identical values can stand only once. Values belong to the compound of their own block, whether it stands above or below them.

What was measured:
Assay in all cases: ≥ marks a high value that may be exact or a test limit, other limits are often not marked, values filed in µg/mL are converted to µM
[1] = tested on: Escherichia coli NCIMB 11843
[2] = tested on: Staphylococcus aureus NCTC 8325-4
[3] = tested on: Staphylococcus aureus RN4220
[4] = tested on: Cronobacter sakazakii DSM 4485
[5] = tested on: Cronobacter muytjensii ATCC 51329
[6] = tested on: Salmonella enterica subsp. enterica serovar Typhimurium LT2
[7] = tested on: Staphylococcus aureus RF122
[8] = tested on: Klebsiella pneumoniae NCIMB 13218
[9] = tested on: Cronobacter sakazakii ATCC BAA-894
[10] = tested on: Cronobacter sakazakii DPC 6440
[11] = tested on: Pseudomonas fluorescens NCIMB 9046
[12] = tested on: Staphylococcus aureus SA113
[13] = tested on: Staphylococcus aureus Newman
[14] = tested on: Staphylococcus epidermidis ATCC 12228
[15] = tested on: Klebsiella pneumoniae NCTC 13368
[16] = tested on: Pseudomonas aeruginosa ATCC BAA-2114
[17] = tested on: Salmonella enterica subsp. enterica serovar Choleraesuis ATCC 10708
[18] = tested on: Acinetobacter baumannii ATCC 17978
[19] = tested on: Pseudomonas aeruginosa PAO1
[20] = tested on: Staphylococcus aureus ATCC 9144
[21] = tested on: Staphylococcus aureus USA 300
[22] = tested on: Escherichia coli NCTC 12923
[23] = tested on: Enterococcus faecalis ATCC 19433
[24] = tested on: Klebsiella pneumoniae ATCC 13883
[25] = tested on: Staphylococcus aureus ATCC 43300
[26] = tested on: Staphylococcus aureus ATCC 33591
[27] = tested on: Pseudomonas aeruginosa ATCC 27853
[28] = tested on: Staphylococcus aureus ATCC 29213
[29] = tested on: Pseudomonas aeruginosa ATCC 9027
[30] = tested on: Escherichia coli ATCC 25922
[31] = tested on: Klebsiella aerogenes ATCC 13048
[32] = tested on: Escherichia coli DL7
[33] = tested on: Bacillus subtilis PS832
[34] = tested on: Pseudomonas aeruginosa LCCE
[35] = tested on: Pseudomonas aeruginosa LCCI
[36] = tested on: Pseudomonas aeruginosa LCGE
[37] = tested on: Salmonella enterica subsp. enterica serovar Typhimurium C77-31
[38] = tested on: Pseudomonas aeruginosa ATCC 21630
[39] = tested on: Pseudomonas aeruginosa ATCC 10419
[40] = tested on: Pseudomonas aeruginosa LC
[41] = tested on: Pseudomonas aeruginosa ATCC 21625
[42] = tested on: Bacillus anthracis Sterne 34F2
[43] = tested on: Bacillus subtilis ATCC 9372
[44] = tested on: Burkholderia thailandensis

SMILES: CC[C@H](C)[C@H](NC(=O)[C@H](C)NC(=O)[C@H](CCCCN)NC(=O)[C@@H]1CCCN1C(=O)[C@@H](NC(=O)[C@H](CC(C)C)NC(=O)[C@H](CCCCN)NC(=O)[C@H](Cc1ccccc1)NC(=O)[C@H](CC(C)C)NC(=O)[C@@H](N)Cc1ccccc1)[C@@H](C)CC)C(=O)N[C@@H](CCCCN)C(=O)N[C@@H](CCCCN)C(=O)N[C@@H](CC(C)C)C(=O)N[C@H](C(=O)N[C@@H](CO)C(=O)N[C@@H](CCCCN)C(=O)N[C@@H](Cc1ccccc1)C(=O)N[C@@H](CCCCN)C(=O)O)[C@@H](C)CC [FLFKLIPKAIKKLISKFK]
MIC [14]: 5 µM (≈ 10.8 µg/mL) | MIC [15]: 7.4 µM (≈ 16 µg/mL) | MIC [16]: ≥ 35 µM | MIC [17]: 7.5 µM (≈ 16.2 µg/mL) | MIC [18]: 1.85 µM (≈ 4 µg/mL) | MIC [19]: 14.8 µM (≈ 32 µg/mL) | MIC [20]: 1.85 µM (≈ 4 µg/mL) | MIC [21]: 3.7 µM (≈ 8 µg/mL) | MIC [22]: 1.85 µM (≈ 4 µg/mL) | MIC [23]: 5 µM (≈ 10.8 µg/mL) | MIC [24]: 5 µM (≈ 10.8 µg/mL) | MIC [25]: 5 µM (≈ 10.8 µg/mL) | MIC [26]: 5 µM and 3 µM | MIC [27]: 35 µM (≈ 75.7 µg/mL) | MIC [28]: 5 µM and 3 µM | MIC [29]: 5 µM (≈ 10.8 µg/mL) | MIC [30]: 7.5 µM (≈ 16.2 µg/mL)

SMILES: CC[C@H](C)[C@H](NC(=O)[C@H](CCCCN)NC(=O)[C@H](CCCCN)NC(=O)[C@H](CC(C)C)NC(=O)[C@H](CCCN=C(N)N)NC(=O)[C@H](CCCCN)NC(=O)[C@H](CCCN=C(N)N)NC(=O)[C@H](Cc1ccccc1)NC(=O)[C@H](CCCCN)NC(=O)[C@H](CCCCN)NC(=O)[C@H](CCCN=C(N)N)NC(=O)[C@H](CC(C)C)NC(=O)[C@H](CCCN=C(N)N)NC(=O)[C@H](CCCN=C(N)N)NC(=O)[C@H](Cc1ccccc1)NC(=O)[C@@H](N)CCCN=C(N)N)C(N)=O [RFRRLRKKFRKRLKKI]
MIC [34]: ≥ 256 µM | MIC [14]: 32 µM (≈ 71.3 µg/mL) | MIC [35]: ≥ 256 µM | MIC [36]: ≥ 256 µM | MIC [37]: ≥ 128 µM | MIC [38]: ≥ 256 µM | MIC [27]: 256 µM (≈ 571 µg/mL) | MIC [39]: ≥ 256 µM | MIC [40]: ≥ 64 µM | MIC [28]: 128 µM (≈ 285 µg/mL) | MIC [41]: ≥ 256 µM | MIC [30]: 64 µM (≈ 143 µg/mL)

SMILES: CSCC[C@H](NC(=O)[C@H](CO)NC(=O)[C@H](Cc1ccc(O)cc1)NC(=O)[C@H](CO)NC(C)=O)C(=O)N[C@@H](CCC(=O)O)C(=O)N[C@@H](Cc1cnc[nH]1)C(=O)N[C@@H](Cc1ccccc1)C(=O)N[C@@H](CCCN=C(N)N)C(=O)N[C@@H](Cc1c[nH]c2ccccc12)C(=O)NCC(=O)N[C@@H](CCCCN)C(=O)N1CCC[C@H]1C(=O)N[C@H](C(N)=O)C(C)C [SYSMEHFRWGKPV]
MIC [42]: ≥ 100 µM | MIC [43]: ≥ 100 µM | MIC [44]: ≥ 50 µM

Next, values leading:

MIC [1]: ≥ 2500 µM | MIC [2]: ≥ 1250 µM | MIC [3]: ≥ 2500 µM | MIC [4]: ≥ 1250 µM | MIC [5]: ≥ 1250 µM | MIC [6]: ≥ 2500 µM | MIC [7]: ≥ 2500 µM | MIC [8]: ≥ 2500 µM | MIC [9]: ≥ 1250 µM | MIC [10]: ≥ 1250 µM | MIC [11]: ≥ 2500 µM | MIC [12]: ≥ 2500 µM | MIC [13]: ≥ 2500 µM
SMILES: CC(C)C[C@H](NC(=O)CNC(=O)[C@H](CCC(N)=O)NC(=O)[C@H](Cc1cnc[nH]1)NC(=O)[C@H](CCCCN)NC(=O)[C@H](C)N)C(=O)N1CCC[C@H]1C(=O)N[C@@H](CCC(N)=O)C(=O)N[C@@H](CCC(=O)O)C(=O)O [AKHQGLPQE]

MIC [14]: 16 µM (≈ 36.1 µg/mL) | MIC [31]: ≥ 32 µM | MIC [32]: 16 µM and 8 µM | MIC [33]: 4 µM (≈ 9.01 µg/mL)
SMILES: CC(C)C[C@H](NC(=O)CNC(=O)[C@H](C)NC(=O)[C@H](CCCN=C(N)N)NC(=O)[C@H](Cc1cnc[nH]1)NC(=O)CNC(=O)CN)C(=O)N[C@@H](CCC(N)=O)C(=O)N[C@@H](Cc1ccccc1)C(=O)N1CCC[C@H]1C(=O)N[C@H](C(=O)NCC(=O)N[C@@H](CCCN=C(N)N)C(=O)N[C@H](C(=O)N[C@@H](Cc1cnc[nH]1)C(=O)N[C@@H](CCCN=C(N)N)C(=O)N[C@@H](CC(C)C)C(=O)N[C@@H](CC(C)C)C(=O)N[C@@H](CCCN=C(N)N)C(=O)N[C@@H](CCCCN)C(N)=O)C(C)C)C(C)C [GGHRAGLQFPVGRVHRLLRK]
